One may read the Ki as the equilibrium dissociation constant of an inhibitor or competing ligand from its target. A lower Ki goes with tighter binding.

The test system of assay [1] is BMMSC. Nature of the assay: Induction of adipogenesis in human BMMSC cells assessed as increase in ANGPTL4 mRNA at 10 uM incubated for 3 days by qRT-PCR analysis. Format: functional, cell-based. Particulars: time 3.0 day.
For assay [2], the system named is BMMSC. The experiment in a line: Induction of adipogenesis in human BMMSC cells assessed as increase in HMGCR mRNA at 10 uM incubated for 3 days by qRT-PCR analysis. Type of assay: functional, cell-based. Particulars: time 3.0 day. On the technique in general: In qPCR the cycle at which signal appears reflects the starting amount.
Assay [3] has as its target T1, Bile acid receptor (Homo sapiens) (UniProt Q96RI1).
T1 sequence (whole entry): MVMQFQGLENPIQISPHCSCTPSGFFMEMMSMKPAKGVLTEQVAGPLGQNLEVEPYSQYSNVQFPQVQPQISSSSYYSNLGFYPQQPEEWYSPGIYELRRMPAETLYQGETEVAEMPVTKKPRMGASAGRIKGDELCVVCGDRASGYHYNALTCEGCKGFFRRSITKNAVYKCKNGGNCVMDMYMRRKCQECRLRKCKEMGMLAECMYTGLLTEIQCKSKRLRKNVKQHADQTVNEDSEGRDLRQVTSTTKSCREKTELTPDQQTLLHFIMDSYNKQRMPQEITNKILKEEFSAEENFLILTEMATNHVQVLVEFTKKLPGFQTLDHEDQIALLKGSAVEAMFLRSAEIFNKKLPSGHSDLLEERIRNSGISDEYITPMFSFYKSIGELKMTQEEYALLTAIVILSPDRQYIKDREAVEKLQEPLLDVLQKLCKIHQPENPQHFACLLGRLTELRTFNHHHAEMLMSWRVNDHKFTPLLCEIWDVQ
The experiment in a line: Transactivation of FXR (unknown origin) by TR-FRET assay.

Assay [4] has as its target T2, Glucocorticoid receptor (Homo sapiens) (UniProt P04150).
T2 sequence (whole entry): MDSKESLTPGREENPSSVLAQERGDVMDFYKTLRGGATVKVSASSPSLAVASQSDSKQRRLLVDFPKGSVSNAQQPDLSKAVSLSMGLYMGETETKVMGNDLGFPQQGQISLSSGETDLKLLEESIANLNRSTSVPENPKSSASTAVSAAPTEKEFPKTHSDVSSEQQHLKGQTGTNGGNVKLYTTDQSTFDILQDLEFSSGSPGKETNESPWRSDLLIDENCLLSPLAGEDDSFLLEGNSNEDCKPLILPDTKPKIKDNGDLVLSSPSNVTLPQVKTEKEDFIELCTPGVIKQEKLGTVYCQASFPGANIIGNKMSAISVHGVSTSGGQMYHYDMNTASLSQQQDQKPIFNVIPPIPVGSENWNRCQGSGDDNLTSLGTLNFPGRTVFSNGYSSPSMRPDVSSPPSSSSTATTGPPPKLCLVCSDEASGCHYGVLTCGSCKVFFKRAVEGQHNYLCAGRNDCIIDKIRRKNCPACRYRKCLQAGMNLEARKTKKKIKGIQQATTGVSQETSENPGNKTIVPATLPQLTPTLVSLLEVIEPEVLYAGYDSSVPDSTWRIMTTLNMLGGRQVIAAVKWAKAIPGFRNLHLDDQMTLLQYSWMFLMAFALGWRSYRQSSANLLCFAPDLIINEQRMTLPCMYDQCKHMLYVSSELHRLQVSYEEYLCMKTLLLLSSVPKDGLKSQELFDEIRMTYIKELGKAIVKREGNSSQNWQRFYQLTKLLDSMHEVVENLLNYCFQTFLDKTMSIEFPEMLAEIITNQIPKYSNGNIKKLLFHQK
The experiment in a line: Binding affinity to glucocorticoid receptor (unknown origin) by TR-FRET assay.

Assay [5] addresses T3, Peroxisome proliferator-activated receptor gamma (Homo sapiens, UniProt P37231).
T3 sequence (P37231 whole entry): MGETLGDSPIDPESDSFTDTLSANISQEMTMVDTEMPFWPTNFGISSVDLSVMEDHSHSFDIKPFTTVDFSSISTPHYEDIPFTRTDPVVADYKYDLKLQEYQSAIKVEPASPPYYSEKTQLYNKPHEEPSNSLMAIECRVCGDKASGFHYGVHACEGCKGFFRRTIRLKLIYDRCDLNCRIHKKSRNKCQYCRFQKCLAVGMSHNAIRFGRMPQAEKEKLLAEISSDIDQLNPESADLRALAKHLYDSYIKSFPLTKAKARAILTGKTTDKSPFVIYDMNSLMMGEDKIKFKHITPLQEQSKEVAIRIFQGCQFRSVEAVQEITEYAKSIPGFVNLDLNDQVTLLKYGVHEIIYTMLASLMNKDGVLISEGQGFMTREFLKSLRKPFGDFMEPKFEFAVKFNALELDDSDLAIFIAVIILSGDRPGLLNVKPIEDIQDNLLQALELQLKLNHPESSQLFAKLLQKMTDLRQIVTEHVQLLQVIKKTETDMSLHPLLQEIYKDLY
The experiment in a line: Binding affinity to PPARgamma (unknown origin) by TR-FRET assay.

Assay [6] has as its target T4, Peroxisome proliferator-activated receptor delta (Homo sapiens, UniProt Q03181).
T4 sequence (Q03181 whole entry): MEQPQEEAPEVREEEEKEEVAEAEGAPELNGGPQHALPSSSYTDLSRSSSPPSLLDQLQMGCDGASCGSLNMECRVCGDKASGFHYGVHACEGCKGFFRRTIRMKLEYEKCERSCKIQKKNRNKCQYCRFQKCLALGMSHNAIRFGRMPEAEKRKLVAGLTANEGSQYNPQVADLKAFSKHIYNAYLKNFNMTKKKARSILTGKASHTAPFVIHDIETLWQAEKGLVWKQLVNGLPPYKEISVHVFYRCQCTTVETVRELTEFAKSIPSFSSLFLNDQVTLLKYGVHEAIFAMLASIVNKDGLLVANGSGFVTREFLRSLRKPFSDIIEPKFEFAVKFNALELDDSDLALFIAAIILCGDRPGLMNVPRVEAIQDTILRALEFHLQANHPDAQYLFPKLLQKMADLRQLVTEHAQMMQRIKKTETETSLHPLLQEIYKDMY
Nature of the assay: Binding affinity to PPARdelta (unknown origin) by TR-FRET assay. (TR-FRET usually uses a lanthanide donor and a delayed reading to cut background.)

Assay [7] has as its system BMMSC. The experiment in a line: Induction of adipogenesis in human BMMSC cells assessed as lipid droplet formation at 10 uM incubated for 5 days by oil red O staining based inverted microscopy analysis. Format: functional, cell-based. Particulars: time 5.0 day.
Assay [8] deals with BMMSC. The experiment in a line: Induction of adipogenesis in human BMMSC cells assessed as increase in adiponectin secretion incubated for 5 days by ELISA. Format: functional, cell-based. Particulars: time 5.0 day. In general terms: An ELISA detects its analyte on a solid surface through an enzyme-linked reagent.
The subject of assay [9] is BMMSC. Nature of the assay: Induction of adipogenesis in human BMMSC cells assessed as increase in adiponectin secretion at 10 uM incubated for 5 days by ELISA. Particulars: time 5.0 day. Format: functional, cell-based.

Calls of active or inactive are those of the source. The calls are words filed in the database; no cut-off is given here.

On to `C=CC(c1ccccc1)c1c(O)cc(O)c2c(=O)cc(-c3ccccc3)oc12` (centres undefined), for which the result with BMMSC [1], in the assay on BMMSC [2], with BMMSC [7] and in the assay on BMMSC [9] was Active. Moreover, the result in [3] and in assay [4] was inactive. Also, the Ki in [5] was determined as 1410 nM; in assay [6], 1180 nM. In addition, in the assay on BMMSC [8], the Activity entry is “Dose-dependent effect”.

These data come from ChEMBL document CHEMBL4665657, “2-Phenyl-8-(1-phenylallyl)-chromenone compounds have a pan-PPAR modulator pharmacophore” (Bioorg Med Chem, 2019).
